Here are results for one substance from EP1714978A1, “Peptides useful for diagnosis and therapy of tumors” (Deutsches Krebsforschungszentrum Stiftung des öffentlichen …, priority 2005, dated 2006).

Series [1] concerns DU-145 (prostate carcinoma cell lines). In words: In vitro binding/uptake of ^125I-labelled FROP-1 by DU-145 cells. The settings on record: ^125I-labelled FROP-1, about 1 x 10^6 cpm per well, 1 hour, RPMI 1640 without FCS and BSA. As for the experimental part:
(§1) • (A) Mice: Female 6-week-old BALB/c nu/nu mice were obtained from Charles River WIGA (Sulzfeld, Germany) and housed in VentiRacks. For inoculation of the tumors in nude mice a Matrigel-matrix/cell suspension (5×10^6 cells) was injected subcutaneously into the anterior region of the mouse trunk. Tumors were grown up to a size of approximately 1.0 cm^3. All animals were cared for according to the German animal guidelines. • (B) Peptide synthesis and labeling: The FROP-1-Peptide (EDYELMDLLAYL) was obtained by solid-phase peptide synthesis using Fmoc-chemistry. The radiolabeling was achieved by iodination using the chloramine-T method (33). […] The solution was centrifuged 5 min at 13,000 rpm and the cleared lysate was analyzed by HPLC. • (D) In vitro binding assay: 300,000 cells were seeded into 6-well plates and cultivated for 24 hours. […] Radioactivity was determined with a gamma counter and calculated as percent applied dose per 10^6 cells. […] The organs were removed, weighed and the radioactivity was determined using an automated NaI(Tl) well counter (CobraII, Canberra Packard, Meriden, USA). The percentage of injected dose per gram of tissue was calculated.
(§2) 2 x 10^5 cells of various tumor cell lines were seeded into 6-well plates. […] The radioactivity of lysed cells was determined with a gamma counter. […]

Series [2] relates to HeLa cells (cervix carcinoma cell line). In words: In vitro binding/uptake of ^125I-labelled FROP-1 by HeLa cells. To be noted: ^125I-labelled FROP-1, about 1 x 10^6 cpm per well, 1 hour, RPMI 1640 without FCS and BSA. As for the experimental part: as §1, §2
The subject of series [3] is FRO82-2 tumor. In words: Organ distribution in tumor-bearing nude mice. The settings on record: summary statement; ^131I-FROP-1 i.v., values only in Figure 6. It is filed as in vivo, Balb/c nu/nu mice. As for the experimental part: as §1, with “(33). The labeled peptide was purified by HPLC on a LiChrosorb RP-select B 5 µm, 250 ×x 4 mm column (Merck, Darmstadt, Germany) using TRIS/phosphate and methanol as eluents.” for “(33).”, “calculated. […]” for “calculated.”

The test system of series [4] is MCF-7 cells (mamma carcinoma cell line). In words: In vitro binding/uptake of ^125I-labelled FROP-1 by MCF-7 cells. The settings on record: ^125I-labelled FROP-1, about 1 x 10^6 cpm per well, 1 hour, RPMI 1640 without FCS and BSA. As for the experimental part:
as §1, §2

The subject of series [5] is PC-3 (prostate carcinoma cell lines). The experiment in a line: In vitro binding/uptake of ^125I-labelled FROP-1 by PC-3 cells. To be noted: ^125I-labelled FROP-1, about 1 x 10^6 cpm per well, 1 hour, RPMI 1640 without FCS and BSA. The method, then: as §1, §2
Series [6] concerns various tumor cell lines. The experiment in a line: Competition of ^125I-labelled FROP-1 uptake by unlabelled FROP-1, various tumor cell lines. Type of series: binding. To be noted: in the presence of 10^-4 unlabelled FROP-1 as a competitor, 1 hour. The method, then:
as §1, §2

Series [7] has as its system FRO82-2 cells (follicular thyroid cancer cell line). The experiment in a line: In vitro binding/uptake of ^125I-labelled FROP-1 by FRO82-2 cells. More on the design: species or system human. The settings on record: ^125I-labelled FROP-1, about 1 x 10^6 cpm per well, 1 hour, RPMI 1640 without FCS and BSA. As for the experimental part: as §1, §2

For “FROP-1: novel 12 amino acid peptide from phage display, aa sequence EDYELMDLLAYL”, the “binding of FROP-1 to DU-145” value in series [1] is reported as “efficient binding”. Moreover, in series [2], the “binding of FROP-1 to HeLa cells” value is given as “efficient binding”. In addition, the “accumulation in tumors in vivo” value in series [3] is recorded as “accumulates in vivo at/in tumors”. Moreover, the “binding of FROP-1 to MCF-7 cells” value in series [4] is “efficient binding”. Besides, the “binding of FROP-1 to PC-3” value in series [5] was “efficient binding”. In addition, in series [6], the “binding can be competed” value worked out at 95%. Further, in series [7], the “binding of FROP-1 to FRO82-2 cells” value is “efficient binding”.
